Source: publication PMC11901676, “Substrate Selectivities of GH78 α-L-Rhamnosidases from Human Gut Bacteria on Dietary Flavonoid Glycosides” (Molecules, 2025)

What was measured:
Experiment in all cases: HPLC initial rates, Michaelis-Menten fit
HFM-RhaC = test system: T1, HFM-RhaC; type: biochemical, metagenome: human feces; conditions: 50 mM sodium phosphate pH 6.0, 37 °C, 5 min
T1 construct: recombinant in E. coli BL21(DE3), Ni-NTA purified
Text: HPLC initial rates, Michaelis-Menten fit on HFM-RhaC

HFM-Rha78 = test system: T2, HFM-Rha78; type: biochemical, metagenome: human feces; conditions: 50 mM sodium phosphate pH 6.5, 37 °C, 5 min
T2 construct: recombinant in E. coli BL21(DE3), Ni-NTA purified
Text: HPLC initial rates, Michaelis-Menten fit on HFM-Rha78

HFM-RhaA = test system: T3, HFM-RhaA; type: biochemical, metagenome: human feces; conditions: 50 mM sodium phosphate pH 6.0, 37 °C, 5 min
T3 construct: recombinant in E. coli BL21(DE3), Ni-NTA purified; catalytic residues Glu448 (acid) and Glu715 (base); AlphaFold2 model said to be in UniProt
Text: HPLC initial rates, Michaelis-Menten fit on HFM-RhaA

[1] = substrate: COc1ccc([C@@H]2CC(=O)c3c(O)cc(O[C@@H]4O[C@H](CO[C@@H]5O[C@@H](C)[C@H](O)[C@@H](O)[C@H]5O)[C@@H](O)[C@H](O)[C@H]4O)cc3O2)cc1O; type: biochemical, Bacteroides thetaiotaomicron; conditions: 50 mM sodium phosphate pH 6.5, 37 °C, 5 min
Text: (§1) HPLC initial rates, Michaelis-Menten fit on BtRha78A

[2] = substrate: C[C@@H]1O[C@@H](OC[C@H]2O[C@@H](Oc3c(-c4ccc(O)c(O)c4)oc4cc(O)cc(O)c4c3=O)[C@H](O)[C@@H](O)[C@@H]2O)[C@H](O)[C@H](O)[C@H]1O; type: biochemical, Bacteroides thetaiotaomicron; conditions: 50 mM sodium phosphate pH 6.5, 37 °C, 5 min
Text: as §1

Row | Molecule | Km (HFM-RhaC) | Km (HFM-Rha78) | Km (HFM-RhaA) | other results
1 | C[C@@H]1O[C@@H](O[C@H]2[C@H](Oc3cc(O)c4c(c3)O[C@H](c3ccc(O)cc3)CC4=O)O[C@H](CO)[C@@H](O)[C@@H]2O)[C@H](O)[C@H](O)[C@H]1O [Naringin] | 2.29 mM | 5.97 mM | 1.92 mM | –
2 | COc1ccc([C@@H]2CC(=O)c3c(O)cc(O[C@@H]4O[C@H](CO[C@@H]5O[C@@H](C)[C@H](O)[C@@H](O)[C@H]5O)[C@@H](O)[C@H](O)[C@H]4O)cc3O2)cc1O [Hesperidin] | 2.16 mM | – | – | –
3 | BtRha78A (Bacteroides thetaiotaomicron VPI-5482) (protein, recombinant in E. coli BL21(DE3), Ni-NTA purified) MILLGALSLASSTFAQTWIWYPGDYEIWLGNQMNNRRTERGAFFPPFWKTDSHYVVVEFSKVLNLSEPEEVFIAAEGTYNVKLDGKLQFGMPETLLLPAGKHSLNIKVWNQATPPTIYVKGKTVNSDSSWRVTYEDKEWIDESGKASDTSATIYMDAGCWNFDGATQRPSQFSLMREPQQPVAKTEQPEGGILYDFGKETFGFITLKNLSGKGKIDLYYGESPEEAKDKAYCETLDKLLLEPGQITDLAIRSTSPLHHSDNEYTLENSKAFRYVYITHEPEVQIGEVSMQYEYLPEEYRGNFRCNDEELNCIWEVGAYTMHLTTREFFIDGIKRDRWVWSGDAIQSYLMNYYLFFDSESVKRTIWLLRGKDPVTSHSNTIMDYTFYWFLSVYDYYMYSGDRHFVNQLYPRMQTMMDYVLGRTNKNGMVEGMSGDWVFVDWADGYLDKKGELSFEQVLFCRSLETMALCADLVGDKDGQQKYEKLASALKAKLEPTFWNNQKQAFVHNCVDGRQSDAVTRYANMFSVFFDYLNADKQQAIKQSVLLNDEILKITTPYMRFYELEALCALGEQETVMKEMKAYWGGMLKAGATSFWEKYNPEESGTQHLAMYGRPYGKSLCHAWGASPIYLLGKYYLGVKPTKEGYKEFAVSPVLGGLKWMEGTVPTPNGDIHVYMDNKTIKVKATEGKGYLTIQSRRQPKANMGTVEKVSEGVWRLWIDSPEERIVTYRL | – | – | – | Km [1]: 2.78 mM; kcat [1]: 8.73 s⁻¹; kcat/Km [1]: 3140 M⁻¹ s⁻¹; Km [2]: 2.38 mM; kcat [2]: 0.47 s⁻¹; kcat/Km [2]: 200 M⁻¹ s⁻¹

The next lines start with results.

Row | Km (HFM-RhaC) | Km (HFM-Rha78) | Km (HFM-RhaA) | Molecule | other results
4 | 3.25 mM | 3.97 mM | 0.53 mM | COc1ccc([C@@H]2CC(=O)c3c(O)cc(O[C@@H]4O[C@H](CO)[C@@H](O)[C@H](O)[C@H]4O[C@@H]4O[C@@H](C)[C@H](O)[C@@H](O)[C@H]4O)cc3O2)cc1O [Neohesperidin] | –
5 | 5.05 mM | – | 1.24 mM | C[C@@H]1O[C@@H](OC[C@H]2O[C@@H](Oc3c(-c4ccc(O)c(O)c4)oc4cc(O)cc(O)c4c3=O)[C@H](O)[C@@H](O)[C@@H]2O)[C@H](O)[C@H](O)[C@H]1O [Rutin] | –
